Experimental data from ChEMBL document CHEMBL3885881, “DrugMatrix”.

Species on record: Rattus norvegicus
Assay: DrugMatrix - Regimen: Daily Repeat
Assay type: toxicity, organism-based, Sprague-Dawley
Set-up: regimen Daily Repeat, gender Male, age 6-8 weeks
Settings: in vivo, po, 0 mg/kg, route oral GAVAGE, dose level Control, vehicle .5 % CMC; for ABSOLUTE BASOPHIL / ABSOLUTE EOSINOPHIL / ABSOLUTE LYMPHOCYTE / ABSOLUTE MONOCYTE / ABSOLUTE SEGMENTED NEUTROPHIL / BASOPHIL / EOSINOPHIL / ERYTHROCYTE COUNT / HEMATOCRIT / HEMOGLOBIN / LEUKOCYTE COUNT / LYMPHOCYTE / MEAN CORPUSCULAR HEMOGLOBIN / MEAN CORPUSCULAR HEMOGLOBIN CONCENTRATION / MEAN CORPUSCULAR VOLUME / MONOCYTE / NEUTROPHIL / NUCLEATED RED BLOOD CELLS / PLATELET COUNT: tissue Blood; for ALANINE AMINOTRANSFERASE / ALBUMIN / ALKALINE PHOSPHATASE / ASPARTATE AMINOTRANSFERASE / BLOOD UREA NITROGEN / CARBON DIOXIDE / CHLORIDE / CHOLESTEROL / CREATINE PHOSPHOKINASE / CREATININE / GLUCOSE / LACTATE DEHYDROGENASE / LIPASE / PHOSPHORUS / POTASSIUM / SODIUM / TOTAL BILIRUBIN / TOTAL PROTEIN / URIC ACID: tissue Plasma

Compound: C[C@H]1O[C@@H](n2cc(F)c(=O)[nH]c2=O)[C@H](O)[C@@H]1O [DOXIFLURIDINE]
- ABSOLUTE BASOPHIL (72 h, time 3 day): 0 CELLS/uL
- ABSOLUTE EOSINOPHIL (72 h, time 3 day): 0 CELLS/uL
- ABSOLUTE LYMPHOCYTE (72 h, time 3 day): 12191.17 CELLS/uL
- ABSOLUTE MONOCYTE (72 h, time 3 day): 183.17 CELLS/uL
- ABSOLUTE SEGMENTED NEUTROPHIL (72 h, time 3 day): 1192.33 CELLS/uL
- BASOPHIL (72 h, time 3 day): 0%
- EOSINOPHIL (72 h, time 3 day): 0%
- ERYTHROCYTE COUNT (72 h, time 3 day): 5.51 x10E6/uL
- HEMATOCRIT (72 h, time 3 day): 35.45%
- HEMOGLOBIN (72 h, time 3 day): 13.82 G/DL
- LEUKOCYTE COUNT (72 h, time 3 day): 13.57 x10E3/uL
- LYMPHOCYTE (72 h, time 3 day): 89.83%
- MEAN CORPUSCULAR HEMOGLOBIN (72 h, time 3 day): 25.1 pg
- MEAN CORPUSCULAR HEMOGLOBIN CONCENTRATION (72 h, time 3 day): 38.98 G/DL
- MEAN CORPUSCULAR VOLUME (72 h, time 3 day): 64.42 fL
- MONOCYTE (72 h, time 3 day): 1.33%
- NEUTROPHIL (72 h, time 3 day): 8.83%
- NUCLEATED RED BLOOD CELLS (72 h, time 3 day): 0 /100WBC
- PLATELET COUNT (72 h, time 3 day): 1118.17 x10E3/uL
- ALANINE AMINOTRANSFERASE (72 h, time 3 day): 55 u/L
- ALBUMIN (72 h, time 3 day): 4.15 G/DL
- ALKALINE PHOSPHATASE (72 h, time 3 day): 449.5 u/L
- ASPARTATE AMINOTRANSFERASE (72 h, time 3 day): 112.83 u/L
- BLOOD UREA NITROGEN (72 h, time 3 day): 17.33 mg/dL
- CARBON DIOXIDE (72 h, time 3 day): 29.5 mmol/L
- CHLORIDE (72 h, time 3 day): 101 MEQ/L
- CHOLESTEROL (72 h, time 3 day): 70 mg/dL
- CREATINE PHOSPHOKINASE (72 h, time 3 day): 1325.83 u/L
- CREATININE (72 h, time 3 day): 0.18 mg/dL
- GLUCOSE (72 h, time 3 day): 171.5 mg/dL
- LACTATE DEHYDROGENASE (72 h, time 3 day): 386 u/L
- LIPASE (72 h, time 3 day): 10 u/L
- PHOSPHORUS (72 h, time 3 day): 11.57 mg/dL
- POTASSIUM (72 h, time 3 day): 6.21 MEQ/L
- SODIUM (72 h, time 3 day): 141.65 MEQ/L
- TOTAL BILIRUBIN (72 h, time 3 day): 0.15 mg/dL
- TOTAL PROTEIN (72 h, time 3 day): 5.75 G/DL
- URIC ACID (72 h, time 3 day): 1.28 mg/dL
- ABSOLUTE BASOPHIL (120 h, time 5 day): 0 CELLS/uL
- ABSOLUTE EOSINOPHIL (120 h, time 5 day): 138.17 CELLS/uL
- ABSOLUTE LYMPHOCYTE (120 h, time 5 day): 13283.17 CELLS/uL
- ABSOLUTE MONOCYTE (120 h, time 5 day): 303.83 CELLS/uL
- ABSOLUTE SEGMENTED NEUTROPHIL (120 h, time 5 day): 1308.17 CELLS/uL
- BASOPHIL (120 h, time 5 day): 0%
- EOSINOPHIL (120 h, time 5 day): 1%
- ERYTHROCYTE COUNT (120 h, time 5 day): 5.32 x10E6/uL
- HEMATOCRIT (120 h, time 5 day): 33.8%
- HEMOGLOBIN (120 h, time 5 day): 13.63 G/DL
- LEUKOCYTE COUNT (120 h, time 5 day): 15.03 x10E3/uL
- LYMPHOCYTE (120 h, time 5 day): 88.33%
- MEAN CORPUSCULAR HEMOGLOBIN (120 h, time 5 day): 25.68 pg
- MEAN CORPUSCULAR HEMOGLOBIN CONCENTRATION (120 h, time 5 day): 40.35 G/DL
- MEAN CORPUSCULAR VOLUME (120 h, time 5 day): 63.67 fL
- MONOCYTE (120 h, time 5 day): 1.83%
- NEUTROPHIL (120 h, time 5 day): 8.83%
- NUCLEATED RED BLOOD CELLS (120 h, time 5 day): 0 /100WBC
- PLATELET COUNT (120 h, time 5 day): 1097.5 x10E3/uL
- ALANINE AMINOTRANSFERASE (120 h, time 5 day): 54.5 u/L
- ALBUMIN (120 h, time 5 day): 4.27 G/DL
- ALKALINE PHOSPHATASE (120 h, time 5 day): 337 u/L
- ASPARTATE AMINOTRANSFERASE (120 h, time 5 day): 94.67 u/L
- BLOOD UREA NITROGEN (120 h, time 5 day): 17 mg/dL
- CARBON DIOXIDE (120 h, time 5 day): 28.33 mmol/L
- CHLORIDE (120 h, time 5 day): 101.5 MEQ/L
- CHOLESTEROL (120 h, time 5 day): 71.33 mg/dL
- CREATINE PHOSPHOKINASE (120 h, time 5 day): 628.17 u/L
- CREATININE (120 h, time 5 day): 0.19 mg/dL
- GLUCOSE (120 h, time 5 day): 177.83 mg/dL
- LACTATE DEHYDROGENASE (120 h, time 5 day): 500.5 u/L
- LIPASE (120 h, time 5 day): 9.5 u/L
- PHOSPHORUS (120 h, time 5 day): 12.3 mg/dL
- POTASSIUM (120 h, time 5 day): 5.63 MEQ/L
- SODIUM (120 h, time 5 day): 143.03 MEQ/L
- TOTAL BILIRUBIN (120 h, time 5 day): 0.2 mg/dL
- TOTAL PROTEIN (120 h, time 5 day): 6.02 G/DL
- URIC ACID (120 h, time 5 day): 1.5 mg/dL
